# Assay results published in ChEMBL document CHEMBL1201862, “PubChem BioAssay data set” (2004).
#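 A five-concentration, 48-hour dose response in 96-well plates underlies each endpoint, interpolated linearly between surrounding concentrations. The concentration for 50% growth inhibition is given as GI50.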 The source made the active and inactive calls. Rule as the data show it: active = GI50 up to about 1.1 µM and inactive = higher.
# Legend:
# Assay in all cases: NCI-60 cell line screen, 48 h
# [1] = system: EKVX
# [2] = system: HCC 2998
# [3] = system: ACHN
# [4] = system: CCRF-CEM
# [5] = system: OVCAR-8
# [6] = system: NCI-H226
# [7] = system: MOLT-4
# [8] = system: OVCAR-3
# [9] = system: SK-MEL-28
# [10] = system: SNB-19
# [11] = system: NCI-H460
# [12] = system: OVCAR-5
# [13] = system: SK-MEL-2
# [14] = system: COLO 205
# [15] = system: TK-10
# [16] = system: UO-31
# [17] = system: K562
# [18] = system: SK-OV-3
# [19] = system: SF-539
# [20] = system: HOP-62
Structure (SMILES),GI50 [1],GI50 [2],GI50 [3],GI50 [4],GI50 [5],GI50 [6],GI50 [7],GI50 [8],GI50 [9],GI50 [10],GI50 [11],GI50 [12],GI50 [13],GI50 [14],GI50 [15],GI50 [16],GI50 [17],GI50 [18],GI50 [19],GI50 [20]
O=C1OC(c2ccc(Cl)cc2)(c2ccc(Cl)cc2)c2c1ccc1ccccc21,> 100 µM (inactive),> 100 µM (inactive),> 100 µM (inactive),> 100 µM (inactive),> 100 µM (inactive),71.4 µM (inactive),39.4 µM (inactive),> 100 µM (inactive),> 100 µM (inactive),> 100 µM (inactive),> 100 µM (inactive),> 100 µM (inactive),> 100 µM (inactive),> 100 µM (inactive),> 100 µM (inactive),92.3 µM (inactive),54.5 µM (inactive),> 100 µM (inactive),–,–
O=C1CN(c2ccccc2)C(=O)C1C(=O)Nc1ccc(Cl)c(Cl)c1 (configuration not stated),–,–,4 µM (inactive),1.84 µM (inactive),–,–,2.33 µM (inactive),3.15 µM (inactive),7.43 µM (inactive),4.62 µM (inactive),–,30.4 µM (inactive),–,8.07 µM (inactive),7.05 µM (inactive),4.12 µM (inactive),0.604 µM (active),5.19 µM (inactive),3.85 µM (inactive),2.22 µM (inactive)
O=C1NC2(CCCCC2)C2CCCCCC12 (configuration not stated),> 100 µM (inactive),> 100 µM (inactive),> 100 µM (inactive),–,–,> 100 µM (inactive),> 100 µM (inactive),> 100 µM (inactive),> 100 µM (inactive),> 100 µM (inactive),> 100 µM (inactive),> 100 µM (inactive),–,–,> 100 µM (inactive),> 100 µM (inactive),> 100 µM (inactive),> 100 µM (inactive),> 100 µM (inactive),> 100 µM (inactive)
CC1=NC(C(=O)O)Cc2c1[nH]c1ccccc21 (configuration not stated),> 100 µM (inactive),–,> 100 µM (inactive),> 100 µM (inactive),> 100 µM (inactive),> 100 µM (inactive),> 100 µM (inactive),> 100 µM (inactive),> 100 µM (inactive),> 100 µM (inactive),> 100 µM (inactive),–,> 100 µM (inactive),> 100 µM (inactive),> 100 µM (inactive),> 100 µM (inactive),> 100 µM (inactive),> 100 µM (inactive),> 100 µM (inactive),< 0.01 µM (active)
COc1cc2c(cc1OC)C(Cl)C(c1cc(OC)c(OC)c(OC)c1)=C2Cl (configuration not stated),19.1 µM (inactive),–,13.6 µM (inactive),4.67 µM (inactive),17.5 µM (inactive),18.7 µM (inactive),7.06 µM (inactive),17.1 µM (inactive),16.4 µM (inactive),14.3 µM (inactive),14.4 µM (inactive),–,15.5 µM (inactive),17.5 µM (inactive),20.3 µM (inactive),11 µM (inactive),12.4 µM (inactive),28.4 µM (inactive),13.8 µM (inactive),–
CC1(C)C2CCC3(OCCO3)C1C(O)C2 (configuration not stated),> 100 µM (inactive),> 100 µM (inactive),> 100 µM (inactive),> 100 µM (inactive),> 100 µM (inactive),> 100 µM (inactive),> 100 µM (inactive),> 100 µM (inactive),> 100 µM (inactive),> 100 µM (inactive),> 100 µM (inactive),> 100 µM (inactive),> 100 µM (inactive),–,> 100 µM (inactive),> 100 µM (inactive),> 100 µM (inactive),–,> 100 µM (inactive),> 100 µM (inactive)
Cc1ccc([N+](=O)[O-])cc1/N=N/C(=O)NNc1cc([N+](=O)[O-])ccc1C,–,23.3 µM (inactive),–,10 µM (inactive),27 µM (inactive),> 10 µM (inactive),9.29 µM (inactive),18.1 µM (inactive),26.8 µM (inactive),41.9 µM (inactive),> 10 µM (inactive),51.3 µM (inactive),24 µM (inactive),33.1 µM (inactive),–,23.6 µM (inactive),19.7 µM (inactive),11.1 µM (inactive),–,26.4 µM (inactive)
CSC1NC(c2ccccc2)=C(C#N)C(=O)N1C1OCC(OC(C)=O)C(OC(C)=O)C1OC(C)=O (configuration not stated),> 100 µM (inactive),> 100 µM (inactive),> 100 µM (inactive),–,> 100 µM (inactive),> 100 µM (inactive),> 100 µM (inactive),> 100 µM (inactive),> 100 µM (inactive),> 100 µM (inactive),> 100 µM (inactive),> 100 µM (inactive),–,> 100 µM (inactive),> 100 µM (inactive),> 100 µM (inactive),> 100 µM (inactive),> 100 µM (inactive),> 100 µM (inactive),> 100 µM (inactive)
CCOC(=O)c1csc(NC(=O)CCCC#N)n1,–,> 100 µM (inactive),> 100 µM (inactive),> 100 µM (inactive),> 100 µM (inactive),> 100 µM (inactive),> 100 µM (inactive),> 100 µM (inactive),> 100 µM (inactive),> 100 µM (inactive),> 100 µM (inactive),> 100 µM (inactive),> 100 µM (inactive),> 100 µM (inactive),> 100 µM (inactive),> 100 µM (inactive),> 100 µM (inactive),> 100 µM (inactive),> 100 µM (inactive),> 100 µM (inactive)
CN(C)C/C=C(/c1ccc(Br)cc1)c1cccnc1,> 100 µM (inactive),15.7 µM (inactive),> 100 µM (inactive),–,> 100 µM (inactive),> 100 µM (inactive),47.9 µM (inactive),> 100 µM (inactive),17.9 µM (inactive),> 100 µM (inactive),81.3 µM (inactive),> 100 µM (inactive),19.8 µM (inactive),16.6 µM (inactive),65.9 µM (inactive),42.8 µM (inactive),32.2 µM (inactive),71.1 µM (inactive),> 100 µM (inactive),45 µM (inactive)
C1CCC2(CC1)O[C@@H]1[C@@H](O2)[C@@H](O[C@H]2O[C@@H]3COC4(CCCCC4)O[C@H]3[C@@H]3OC4(CCCCC4)O[C@@H]23)O[C@@H]2COC3(CCCCC3)O[C@@H]12,> 100 µM (inactive),–,> 100 µM (inactive),> 100 µM (inactive),> 100 µM (inactive),–,23.9 µM (inactive),> 100 µM (inactive),> 100 µM (inactive),> 100 µM (inactive),–,> 100 µM (inactive),> 100 µM (inactive),> 100 µM (inactive),> 100 µM (inactive),> 100 µM (inactive),> 100 µM (inactive),> 100 µM (inactive),> 100 µM (inactive),> 100 µM (inactive)
CC(NC(=O)Cc1ccccc1)NC(=O)C(C)C(=O)NCc1ccccc1 (configuration not stated),> 100 µM (inactive),–,52.2 µM (inactive),> 100 µM (inactive),32.4 µM (inactive),21.7 µM (inactive),> 100 µM (inactive),–,–,23.7 µM (inactive),> 100 µM (inactive),> 100 µM (inactive),75.3 µM (inactive),> 100 µM (inactive),45.4 µM (inactive),42.6 µM (inactive),> 100 µM (inactive),53.6 µM (inactive),82.4 µM (inactive),–
COC(=O)c1cccc(C(=O)OC)c1,–,> 100 µM (inactive),> 100 µM (inactive),> 100 µM (inactive),–,> 100 µM (inactive),> 100 µM (inactive),–,> 100 µM (inactive),> 100 µM (inactive),> 100 µM (inactive),> 100 µM (inactive),> 100 µM (inactive),> 100 µM (inactive),> 100 µM (inactive),–,–,> 100 µM (inactive),–,> 100 µM (inactive)
Clc1ccc2c(c1)CC1C[N+]3=C(CCCCC3)C1=C2 (configuration not stated),45.6 µM (inactive),–,> 100 µM (inactive),> 100 µM (inactive),28.3 µM (inactive),69.7 µM (inactive),> 100 µM (inactive),59 µM (inactive),> 100 µM (inactive),51.8 µM (inactive),33 µM (inactive),> 100 µM (inactive),28.8 µM (inactive),28.9 µM (inactive),69.2 µM (inactive),> 100 µM (inactive),> 100 µM (inactive),> 100 µM (inactive),–,> 100 µM (inactive)
c1ccc(/N=C2/SC3=Nc4cccc5cccc(c45)N3/C2=N/c2ccccc2)cc1,–,> 100 µM (inactive),–,54.1 µM (inactive),> 100 µM (inactive),> 100 µM (inactive),79.3 µM (inactive),> 100 µM (inactive),> 100 µM (inactive),> 100 µM (inactive),> 100 µM (inactive),> 100 µM (inactive),> 100 µM (inactive),> 100 µM (inactive),–,> 100 µM (inactive),> 100 µM (inactive),> 100 µM (inactive),–,> 100 µM (inactive)
CCOC(=O)c1nc2cc(C(F)(F)F)ccc2nc1Oc1ccc(F)cc1,> 100 µM (inactive),> 100 µM (inactive),> 100 µM (inactive),> 100 µM (inactive),> 100 µM (inactive),> 100 µM (inactive),> 100 µM (inactive),> 100 µM (inactive),> 100 µM (inactive),> 100 µM (inactive),> 100 µM (inactive),> 100 µM (inactive),> 100 µM (inactive),> 100 µM (inactive),> 100 µM (inactive),61.5 µM (inactive),> 100 µM (inactive),–,> 100 µM (inactive),–
